Structures are written as SMILES. Where a name gives a salt, the structure may show the parent alone.

Sequence of cloned human NR1/NR2B ion channels (Q13224 27-1484, other chains not shown): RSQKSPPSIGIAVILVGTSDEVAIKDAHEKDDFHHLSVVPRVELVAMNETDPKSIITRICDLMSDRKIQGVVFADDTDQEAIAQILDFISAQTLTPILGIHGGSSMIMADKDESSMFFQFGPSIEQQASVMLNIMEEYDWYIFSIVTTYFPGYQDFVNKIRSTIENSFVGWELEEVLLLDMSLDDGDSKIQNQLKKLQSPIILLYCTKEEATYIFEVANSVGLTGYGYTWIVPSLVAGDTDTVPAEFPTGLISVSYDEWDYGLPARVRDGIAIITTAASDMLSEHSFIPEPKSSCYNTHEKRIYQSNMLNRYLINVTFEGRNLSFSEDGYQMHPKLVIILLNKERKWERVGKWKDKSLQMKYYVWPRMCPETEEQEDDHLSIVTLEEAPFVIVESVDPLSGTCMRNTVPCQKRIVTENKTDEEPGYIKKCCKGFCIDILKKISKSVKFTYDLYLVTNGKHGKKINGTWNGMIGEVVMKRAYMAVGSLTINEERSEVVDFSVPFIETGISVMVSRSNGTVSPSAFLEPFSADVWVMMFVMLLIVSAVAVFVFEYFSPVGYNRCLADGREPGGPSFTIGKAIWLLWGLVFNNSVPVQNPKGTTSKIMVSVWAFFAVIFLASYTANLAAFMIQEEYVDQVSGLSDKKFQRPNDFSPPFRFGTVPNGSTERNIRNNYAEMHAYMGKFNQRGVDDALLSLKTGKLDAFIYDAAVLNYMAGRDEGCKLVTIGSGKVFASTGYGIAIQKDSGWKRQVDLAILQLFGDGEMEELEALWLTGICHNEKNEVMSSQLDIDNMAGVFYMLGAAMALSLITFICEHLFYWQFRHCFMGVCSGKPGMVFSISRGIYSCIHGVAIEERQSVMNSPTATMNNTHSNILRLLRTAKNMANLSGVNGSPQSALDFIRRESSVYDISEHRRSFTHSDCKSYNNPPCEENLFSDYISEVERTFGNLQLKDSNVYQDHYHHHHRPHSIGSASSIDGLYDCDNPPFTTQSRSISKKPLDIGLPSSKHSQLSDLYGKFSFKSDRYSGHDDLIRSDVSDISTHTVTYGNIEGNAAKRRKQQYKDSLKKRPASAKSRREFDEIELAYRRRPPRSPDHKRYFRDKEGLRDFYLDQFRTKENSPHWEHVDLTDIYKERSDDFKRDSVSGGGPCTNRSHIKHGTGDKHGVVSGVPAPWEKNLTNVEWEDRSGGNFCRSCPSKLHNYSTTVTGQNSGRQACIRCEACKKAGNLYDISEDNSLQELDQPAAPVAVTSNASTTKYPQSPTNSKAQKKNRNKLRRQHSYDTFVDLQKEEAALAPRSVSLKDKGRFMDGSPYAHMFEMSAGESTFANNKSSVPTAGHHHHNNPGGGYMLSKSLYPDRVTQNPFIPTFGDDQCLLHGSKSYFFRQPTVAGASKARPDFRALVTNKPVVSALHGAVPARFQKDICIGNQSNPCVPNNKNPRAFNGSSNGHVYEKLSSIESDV

For this assay, the target named is cloned human NR1/NR2B ion channels (Homo sapiens (Human), UniProt Q05586+Q13224). Description: HNR2BC: effects of test articles on cloned human NR1/NR2B ion channels expressed in mammalian cells (FLIPR calcium flux). It counts as cell-based. Particulars: cloned human NR1/NR2B, Table 5. In a few lines:
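In a stable Tet-On-induced cell line expressing human GluN1/GluN2B, Calcium 5-loaded cells were preincubated 5 min with compound, then stimulated 5 min with glutamate at ~EC80 plus 10 μM glycine, in pH 7.4 HEPES buffer. FLIPR calcium fluorescence was normalized to control wells.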
Background: A change in cytosolic calcium serves as a functional read-out for many receptors and channels.
With `O=C(Cn1ccc2ncc(-c3cccc(C(F)(F)F)c3)cc21)N1CC(F)C1` [Example 265, 1-(3-Fluoroazetidin-1-yl)-2-[6-[3-(trifluoromethyl)phenyl]pyrrolo[3,2-b]pyridin-1-yl]ethanone trifluoroacetate salt], the half-maximal inhibitory concentration (IC50) is 0.1 µM. As to `Cc1cccc(-c2cnc3ccn(CC(=O)N4CC(F)C4)c3c2)c1` [Example 266, 1-(3-Fluoroazetidin-1-yl)-2-[6-(m-tolyl)pyrrolo[3,2-b]pyridin-1-yl]ethanone trifluoroacetate salt], the half-maximal inhibitory concentration (IC50) is 0.126 µM. For `O=C(Cn1ccc2ncc(-c3cccc(C(F)(F)F)c3F)cc21)N1CC(F)C1` [Example 267, 1-(3-Fluoroazetidin-1-yl)-2-[6-[2-fluoro-3-(trifluoromethyl)phenyl]pyrrolo[3,2-b]pyridin-1-yl]ethanone trifluoroacetate salt] the value was 0.0398 µM; for `CCc1cccc(-c2cnc3ccn(CC(=O)N4CC(F)C4)c3c2)c1` [Example 268, 2-[6-(3-Ethylphenyl)pyrrolo[3,2-b]pyridin-1-yl]-1-(3-fluoroazetidin-1-yl)ethanone trifluoroacetate salt], 0.0794 µM; for `Cc1cccc(-c2cnc3ccn(CC(=O)N4CC(F)(F)C4)c3c2)c1` [Example 269, 1-(3,3-Difluoroazetidin-1-yl)-2-[6-(m-tolyl)pyrrolo[3,2-b]pyridin-1-yl]ethanone], 0.0631 µM.

With `O=C(Cn1ccc2ncc(-c3ccccc3)cc21)N1CC(F)C1` [Example 270, 1-(3-Fluoroazetidin-1-yl)-2-(6-phenylpyrrolo[3,2-b]pyridin-1-yl)ethanone], the IC50 is 0.0398 µM. As for `Cc1c(F)ccc(-c2cnc3c(F)cn(CC(=O)N4CC(F)(F)C4)c3c2)c1F` [Example 271, 1-(3,3-Difluoroazetidin-1-yl)-2-[6-(2,4-difluoro-3-methyl-phenyl)-3-fluoro-pyrrolo[3,2-b]pyridin-1-yl]ethanone], the IC50 was 0.0794 µM. `Cc1cc(-c2cnc3ccn(CC(=O)N4CC(O)C4)c3c2)ccc1F` [Example 273, 2-[6-(4-Fluoro-3-methyl-phenyl)pyrrolo[3,2-b]pyridin-1-yl]-1-(3-hydroxyazetidine-1-yl)ethanone]: the IC50 is 1 µM.

As to `CO/N=C(/Cn1ccc2ncc(-c3ccc(F)c(C)c3)cc21)C1CC1` [Example 276, 1-Cyclopropyl-2-[6-(4-fluoro-3-methyl-phenyl)pyrrolo[3,2-b]pyridin-1-yl]-N-methoxy-ethanimine], the IC50 is 0.501 µM.

Consider `O=C(Cn1ccc2ncc(-c3cccs3)cc21)N1CC(F)C1` [Example 277, 1-(3-Fluoroazetidin-1-yl)-2-[6-(2-thienyl)pyrrolo[3,2-b]pyridin-1-yl]ethanone], for which the IC50 is 3.16 µM.

`O=C(Cn1ccc2ncc(-c3cccs3)cc21)N1CCCC1` [Example 278, 1-Pyrrolidin-1-yl-2-[6-(2-thienyl)pyrrolo[3,2-b]pyridin-1-yl]ethanone]: the IC50 was 0.251 µM. For `Cc1ccc(-c2cnc3ccn(CC(=O)N4CC(F)(F)C4)c3c2)s1` [Example 279, 1-(3,3-Difluoroazetidin-1-yl)-2-[6-(5-methyl-2-thienyl)pyrrolo[3,2-b]pyridin-1-yl]ethanone] the value was 0.251 µM; for `Cc1ccc(-c2cnc3ccn(CC(=O)N4CC(F)C4)c3c2)s1` [Example 280, 1-(3-Fluoroazetidin-1-yl)-2-[6-(5-methyl-2-thienyl)pyrrolo[3,2-b]pyridin-1-yl]ethanone], 0.0316 µM.

As for `CCc1ccc(-c2cnc3ccn(CC(=O)N4CC(F)C4)c3c2)s1` [Example 281, 2-[6-(5-Ethyl-2-thienyl)pyrrolo[3,2-b]pyridin-1-yl]-1-(3-fluoroazetidin-1-yl)ethanone], the IC50 is 0.02 µM.

Regarding `CCc1ccc(-c2cnc3ccn(CC(=O)N4CCCC4)c3c2)s1` [Example 282, 2-[6-(5-Ethyl-2-thienyl)pyrrolo[3,2-b]pyridin-1-yl]-1-pyrrolidin-1-yl-ethanone], the concentration for half-maximal inhibition (IC50) was 0.0794 µM. For `Cc1ccc(-c2cnc3ccn(CC(=O)N4CCCC4)c3c2)s1` [Example 283, 2-[6-(5-Methyl-2-thienyl)pyrrolo[3,2-b]pyridin-1-yl]-1-pyrrolidin-1-yl-ethanone] the value was 0.2 µM; for `CCc1ccc(-c2cnc3ccn(CC(=O)N4CC(F)(F)C4)c3c2)s1` [Example 284, 1-(3,3-Difluoroazetidin-1-yl)-2-[6-(5-ethyl-2-thienyl)pyrrolo[3,2-b]pyridin-1-yl]ethanone], 0.1 µM; for `O=C(Cn1ccc2ncc(-c3cc(Cl)cs3)cc21)N1CC(F)C1` [Example 285, 2-[6-(4-Chloro-2-thienyl)pyrrolo[3,2-b]pyridin-1-yl]-1-(3-fluoroazetidin-1-yl)ethanone], 0.158 µM.

Consider `Cc1cc(-c2cnc3ccn(C/C(=N/O)C4CC4)c3c2)ccc1F` [Example 286, 1-Cyclopropyl-2-[6-(4-fluoro-3-methyl-phenyl)pyrrolo[3,2-b]pyridin-1-yl]ethanone oxime trifluoroacetate salt], for which the concentration for half-maximal inhibition (IC50) was 0.158 µM. As to `O=C(Cn1ccc2ncc(-c3ccc(Cl)s3)cc21)N1CCCC1` [Example 287, 2-[6-(5-Chloro-2-thienyl)pyrrolo[3,2-b]pyridin-1-yl]-1-pyrrolidin-1-yl-ethanone], the IC50 was 0.631 µM. In the case of `O=C(Cn1ccc2ncc(-c3cc(Cl)cs3)cc21)N1CCCC1` [Example 288, 2-[6-(4-Chloro-2-thienyl)pyrrolo[3,2-b]pyridin-1-yl]-1-pyrrolidin-1-yl-ethanone], the IC50 is 0.02 µM.

Take `COC1CN(C(=O)Cn2ccc3ncc(-c4ccc(F)c(C)c4)cc32)C1` [Example 290, 2-[6-(4-Fluoro-3-methyl-phenyl)pyrrolo[3,2-b]pyridin-1-yl]-1-(3-methoxyazetidin-1-yl)ethanone]: the half-inhibitory concentration (IC50) was 0.631 µM. For `COCCn1ccc2ncc(-c3ccc(F)c(C)c3)cc21` [Example 291, 6-(4-Fluoro-3-methyl-phenyl)-1-(2-methoxyethyl)pyrrolo[3,2-b]pyridine trifluoroacetate salt] the value was 0.0794 µM; for `O=C(Cn1ccc2ncc(-c3cccc(F)c3)cc21)C1CCC1` [Example 292, 1-Cyclobutyl-2-[6-(3-fluorophenyl)pyrrolo[3,2-b]pyridin-1-yl]ethanone], 1.26 µM. The result for `O=C(Cn1ccc2ncc(-c3ccc(F)cc3)cc21)N1CC[C@H](F)C1` [Example 294, 2-[6-(4-Fluorophenyl)pyrrolo[3,2-b]pyridin-1-yl]-1-[(3S)-3-fluoropyrrolidin-1-yl]ethanone trifluoroacetate salt] reads 0.316 µM.

For `CCC(=O)Cn1ccc2ncc(-c3ccc(F)c(C)c3)cc21` [Example 295, 1-[6-(4-Fluoro-3-methyl-phenyl)pyrrolo[3,2-b]pyridin-1-yl]butan-2-one trifluoroacetate salt], the IC50 is 0.316 µM. Consider `CCN(C)C(=O)Cn1ccc2ncc(-c3ccc(F)c(C)c3)cc21` [Example 296, N-Ethyl-2-[6-(4-fluoro-3-methyl-phenyl)pyrrolo[3,2-b]pyridin-1-yl]-N-methyl-acetamide], for which the IC50 is 0.0251 µM. For `CCN(CC)C(=O)Cn1ccc2ncc(-c3ccc(F)c(C)c3)cc21` [Example 297, N,N-Diethyl-2-[6-(4-fluoro-3-methyl-phenyl)pyrrolo[3,2-b]pyridin-1-yl]acetamide] the value was 0.0398 µM; for `O=C(Cn1cc(Cl)c2ncc(-c3cccc(C(F)(F)F)c3)cc21)N1CCC1` [Example 298, 1-(Azetidin-1-yl)-2-[3-chloro-6-[3-(trifluoromethyl)phenyl]pyrrolo[3,2-b]pyridin-1-yl]ethanone], 0.501 µM. For the compound `Cc1cccc(-c2cnc3c(Cl)cn(CC(=O)C4CC4)c3c2)c1` [Example 299, 2-[3-Chloro-6-(m-tolyl)pyrrolo[3,2-b]pyridin-1-yl]-1-cyclopropyl-ethanone], the half-maximal inhibitory concentration (IC50) is 0.0501 µM. Take `O=C(Cn1cc(Cl)c2ncc(-c3ccccc3)cc21)C1CC1` [Example 300, 2-(3-Chloro-6-phenyl-pyrrolo[3,2-b]pyridin-1-yl)-1-cyclopropyl-ethanone]: the IC50 is 0.02 µM. For `O=C(Cn1cc(Cl)c2ncc(-c3cc(F)c(F)c(F)c3)cc21)N1CCC1` [Example 301, 1-(Azetidin-1-yl)-2-[3-chloro-6-(3,4,5-trifluorophenyl)pyrrolo[3,2-b]pyridin-1-yl]ethanone], the concentration for half-maximal inhibition (IC50) is 0.02 µM.

`O=C(Cn1cc(F)c2ncc(-c3ccc(F)cc3)cc21)N1CCC1` [Example 302, 1-(Azetidin-1-yl)-2-[3-fluoro-6-(4-fluorophenyl)pyrrolo[3,2-b]pyridin-1-yl]ethanone]: the IC50 is 0.0316 µM. The result for `Cc1cc(C)cc(-c2cnc3c(Cl)cn(CC(=O)N4CCC4)c3c2)c1` [Example 303, 1-(Azetidin-1-yl)-2-[3-chloro-6-(3,5-dimethylphenyl)pyrrolo[3,2-b]pyridin-1-yl]ethanone] reads 0.0398 µM. For the compound `Cc1cc(-c2cnc3c(F)cn(CC(=O)N4CCOCC4)c3c2)ccc1F` [Example 304, 2-[3-Fluoro-6-(4-fluoro-3-methyl-phenyl)pyrrolo[3,2-b]pyridin-1-yl]-1-morpholino-ethanone], the IC50 was 0.158 µM. For `O=C(Cn1cc(F)c2ncc(-c3ccc(F)cc3)cc21)N1CCOCC1` [Example 305, 2-[3-Fluoro-6-(4-fluorophenyl)pyrrolo[3,2-b]pyridin-1-yl]-1-morpholino-ethanone] the value was 0.0794 µM; for `O=C(Cn1cc(F)c2ncc(-c3cc(F)c(F)c(F)c3)cc21)N1CC(F)C1` [Example 306, 1-(3-Fluoroazetidin-1-yl)-2-[3-fluoro-6-(3,4,5-trifluorophenyl)pyrrolo[3,2-b]pyridin-1-yl]ethanone], 0.398 µM. Turning to `Cc1cc(-c2cnc3c(F)cn(CC(=O)N4CC(F)C4)c3c2)ccc1F` [Example 307, 1-(3-Fluoroazetidin-1-yl)-2-[3-fluoro-6-(4-fluoro-3-methyl-phenyl)pyrrolo[3,2-b]pyridin-1-yl]ethanone], the half-maximal inhibitory concentration (IC50) is 0.0398 µM.

By IC50 is commonly meant the concentration needed to halve the response being measured.
